The source of these data is patent US8765730B2 (Hoffmann-La Roche Inc, priority 2010, dated 2014).

Structures can show the parent of a compound that is named as a salt.

One assay addresses T1, human GPBAR1 receptor (Homo sapiens, UniProt Q8TDU6).
T1 construct: expressed in transfected cells
T1 sequence (Q8TDU6 1-330): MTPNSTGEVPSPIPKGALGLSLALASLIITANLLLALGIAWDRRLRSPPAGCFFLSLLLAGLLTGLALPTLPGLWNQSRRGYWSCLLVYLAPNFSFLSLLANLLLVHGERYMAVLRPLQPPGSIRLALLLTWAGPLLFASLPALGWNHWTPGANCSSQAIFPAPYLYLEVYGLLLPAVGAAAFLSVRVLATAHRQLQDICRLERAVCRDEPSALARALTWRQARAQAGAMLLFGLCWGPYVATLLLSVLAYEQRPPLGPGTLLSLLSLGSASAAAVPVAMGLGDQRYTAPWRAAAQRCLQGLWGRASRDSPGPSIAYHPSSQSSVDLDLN
In words: functional cAMP assay in CHO-dhfr(minus) cells expressing human GPBAR1 receptors. The format is cell-based. The conditions noted are these: human EC50, functional cAMP assay, 30 min at 30° C. The essentials:
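Agonist cAMP read-out: stable GPBAR1 CHO-dhfr− clone, 30 min compound exposure at 30° C following 30 min IBMX (1 mM) preincubation in Krebs Ringer bicarbonate. Time-resolved energy-transfer detection gives EC50; parental CHO cells serve as counter-screen.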
For orientation: Cyclic AMP is a second messenger, typically raised through Gs and lowered through Gi signalling.

The conditions of assay [1]: IV infusion (0.8 μmol/kg/min) for 90 min, obese and normal human subjects, over 24 hours; cited from earlier work.

For orientation: EC50 means the concentration needed to bring the measured effect to its halfway point. A low value points to an effect from little substance.

Take `Cc1cc(/C(C[C@H](c2ccc(C3CN(C(=O)OC(C)(C)C)C3)cc2)c2ccccc2C)=N/O)ccn1` [Example 481, (R,E)-tert-Butyl 3-(4-(3-(hydroxyimino)-3-(2-methylpyridin-4-yl)-1-o-tolylpropyl)phenyl)-azetidine-1-carboxylate]: the EC50 at human GPBAR1 receptor turned out to be 153 nM. In the case of `Cc1cc(/C(C[C@H](c2ccc(C3CNC3)cc2)c2ccccc2C)=N/O)ccn1` [Example 482, (R,E)-3-(4-(Azetidin-3-yl)phenyl)-1-(2-methylpyridin-4-yl)-3-o-tolylpropan-1-one oxime], the EC50 at human GPBAR1 receptor amounted to 127 nM. Compound `CC(=O)N1CC(c2ccc([C@@H](C/C(=N\O)c3ccnc(C)c3)c3ccccc3C)cc2)C1` [Example 483] yielded an EC50 on human GPBAR1 receptor of 31 nM.

At human GPBAR1 receptor, `Cc1cc(/C(C[C@H](c2ccc(C3CN(S(C)(=O)=O)C3)cc2)c2ccccc2C)=N/O)ccn1` [Example 484, (R,E)-1-(2-Methylpyridin-4-yl)-3-(4-(1-(methylsulfonyl)azetidin-3-yl)phenyl)-3-o-tolylpropan-1-one oxime] showed an EC50 of 10 nM. Regarding `Cc1cc(/C(C[C@H](c2ccc(C3CN(S(N)(=O)=O)C3)cc2)c2ccccc2C)=N/O)ccn1` [Example 485, (R,E)-3-(4-(3-(Hydroxyimino)-3-(2-methylpyridin-4-yl)-1-o-tolylpropyl)phenyl)azetidine-1-sulfonamide], the EC50 at human GPBAR1 receptor stood at 21 nM. Turning to `Cc1ccccc1[C@@H](C/C(=N\O)c1ccc(=O)n(C)c1)c1ccc(C2CCC(C(=O)O)CC2)cc1` (stereo partly drawn) [Example 487, (S,E)-4-(4-(3-(hydroxyimino)-3-(1-methyl-6-oxo-1,6-dihydropyridin-3-yl)-1-o-tolylpropyl)-phenyl)cyclohexanecarboxylic acid], at human GPBAR1 receptor, the response was half-maximal at 656 nM (EC50). This EC50 is about 31-fold higher than that of the compound before.

The compound `Cc1ccccc1[C@@H](C/C(=N\O)c1ccc(=O)n(C)c1)c1ccc([C@H]2CC[C@H](C(=O)O)CC2)cc1` [Example 488, Trans-4-(4-((S,E)-3-(Hydroxyimino)-3-(1-methyl-6-oxo-1,6-dihydropyridin-3-yl)-1-o-tolylpropyl)phenyl)cyclohexanecarboxylic acid] had an EC50 on human GPBAR1 receptor of 612 nM. Still for that read-out and setting: next, `Cc1ccccc1[C@@H](C/C(=N\O)c1ccc(=O)n(C)c1)c1ccc([C@H]2CC[C@@H](C(=O)O)CC2)cc1` [Example 489, cis-4-(4-((S,E)-3-(hydroxyimino)-3-(1-methyl-6-oxo-1,6-dihydropyridin-3-yl)-1-o-tolylpropyl)phenyl)cyclohexanecarboxylic acid]: 582 nM; `Cc1cc(/C(C[C@H](c2ccc(C3CCC(C(=O)O)CC3)cc2)c2ccccc2C)=N/O)ccn1` (stereo partly drawn) [Example 490, (R,E)-4-(4-(3-(Hydroxyimino)-3-(2-methylpyridin-4-yl)-1-o-tolylpropyl)phenyl)-cyclohexanecarboxylic acid]: 24 nM; `Cc1cc(/C(C[C@H](c2ccc([C@H]3CC[C@@H](C(=O)O)CC3)cc2)c2ccccc2C)=N/O)ccn1` [Example 492, cis-4-{4-[(R)-3-[(E)-hydroxyimino]-3-(2-methyl-pyridin-4-yl)-1-o-tolyl-propyl]-phenyl}-cyclohexanecarboxylic acid]: 18 nM.

For `Cc1ccccc1[C@H](C/C(=N\O)c1ccc(=O)n(C)c1)c1ccc(CC(=O)O)cc1` [Example 493, (R,E)-2-(4-(3-(Hydroxyimino)-3-(1-methyl-6-oxo-1,6-dihydropyridin-3-yl)-1-o-tolylpropyl)phenyl)acetic acid], it took 666 nM to reach a half-maximal effect at human GPBAR1 receptor (EC50).

For the compound `Cc1ccccc1[C@H](C/C(=N\O)c1ccc(=O)n(C)c1)c1ccc(N2CCC(C(=O)O)CC2)cc1` [Example 497, Sodium (R,E)-1-(4-(3-(Hydroxyimino)-3-(1-methyl-6-oxo-1,6-dihydropyridin-3-yl)-1-o-tolylpropyl)phenyl)piperidine-4-carboxylate], at human GPBAR1 receptor, the half-maximal effective concentration (EC50) stood at 41 nM.

For `Cc1ccccc1[C@H](C/C(=N\O)c1ccc(=O)n(C)c1)c1ccc(C#N)cc1` [Example 498, (R,E)-4-(3-(Hydroxyimino)-3-(1-methyl-6-oxo-1,6-dihydropyridin-3-yl)-1-o-tolylpropyl)benzonitrile], the EC50 on human GPBAR1 receptor is 7 nM. Against the preceding compound, the EC50 is about 5.9-fold lower. Same read-out and setting: for `Cc1ccccc1[C@H](C/C(=N/O)c1ccc(=O)n(C)c1)c1ccc(C#N)cc1` [Example 499, (R,Z)-4-(3-(hydroxyimino)-3-(1-methyl-6-oxo-1,6-dihydropyridin-3-yl)-1-o-tolylpropyl)benzonitrile] the value was 4500 nM. Consider `Cc1ccccc1[C@H](C/C(=N\O)c1ccc(=O)n(C)c1)c1ccc(-c2nnn[nH]2)cc1` [Example 500, (R,E)-5-(3-(4-(1H-Tetrazol-5-yl)phenyl)-1-(hydroxyimino)-3-o-tolylpropyl)-1-methyl-pyridin-2(1H)-one, sodium salt], for which the EC50 on human GPBAR1 receptor was found to be 268 nM. In the case of `Cc1ccccc1[C@@H](C/C(=N\O)c1cnc(=O)n(C)c1)c1ccc(Br)cc1` [Example 501, (S,E)-5-(3-(4-Bromophenyl)-1-(hydroxyimino)-3-o-tolylpropyl)-1-methylpyrimidin-2(1H)-one], the EC50 on human GPBAR1 receptor is 225 nM.

The compound `Cc1ccccc1[C@@H](C/C(=N\O)c1cnc(=O)n(C)c1)c1ccc(S(C)(=O)=O)cc1` [Example 502, (S,E)-5-(1-(Hydroxyimino)-3-(4-(methylsulfonyl)phenyl)-3-o-tolylpropyl)-1-methyl-pyrimidin-2(1H)-one] registered a 50% effective concentration (EC50) at human GPBAR1 receptor of 477 nM. In the case of `Cc1cc(/C(C[C@H](c2ccc(C3CCC(C(=O)O)CC3)cc2)c2ccc(Cl)cc2C)=N/O)ccn1` (stereo partly drawn) [Example 503, (R,E)-4-(4-(1-(4-Chloro-2-methylphenyl)-3-(hydroxyimino)-3-(2-methylpyridin-4-yl)propyl)phenyl)cyclohexanecarboxylic acid], a half-maximal effect at human GPBAR1 receptor (EC50) was put at 25 nM. `Cc1cc(/C(C[C@H](c2ccc([C@H]3CC[C@H](C(=O)O)CC3)cc2)c2ccc(Cl)cc2C)=N/O)ccn1` [Example 504, Trans-4-(4-((R,E)-1-(4-Chloro-2-methylphenyl)-3-(hydroxyimino)-3-(2-methylpyridin-4-yl)propyl)phenyl)cyclohexanecarboxylic acid] had an EC50 on human GPBAR1 receptor of 28 nM. This EC50 and that of the compound before are within 1.5-fold of each other.

Take `Cc1cc(/C(C[C@H](c2ccc([C@H]3CC[C@@H](C(=O)O)CC3)cc2)c2ccc(Cl)cc2C)=N/O)ccn1` [Example 505, cis-4-(4-((R,E)-1-(4-chloro-2-methylphenyl)-3-(hydroxyimino)-3-(2-methylpyridin-4-yl)propyl)phenyl)cyclohexanecarboxylic acid]: at human GPBAR1 receptor, the EC50 was 13 nM. For the compound `Cc1ccccc1[C@H](C/C(=N\O)c1ccc(=O)n(C)c1)c1ccc(C2CCN(C(=O)OC(C)(C)C)CC2)cc1` [Example 506, (R,E)-tert-Butyl 4-(4-(3-(hydroxyimino)-3-(1-methyl-6-oxo-1,6-dihydropyridin-3-yl)-1-o-tolylpropyl)phenyl)piperidine-1-carboxylate], it took 634 nM to reach a half-maximal effect at human GPBAR1 receptor (EC50). Consider `Cc1ccccc1[C@H](C/C(=N\O)c1ccc(=O)n(C)c1)c1ccc(C2CCNCC2)cc1` [Example 507, (R,E)-5-(1-(Hydroxyimino)-3-(4-(piperidin-4-yl)phenyl)-3-o-tolylpropyl)-1-methylpyridin-2(1H)-one], for which the concentration for a half-maximal effect (EC50) at human GPBAR1 receptor was 2370 nM. The same measure, in the same setting: next, `CC(=O)N1CCC(c2ccc([C@@H](C/C(=N\O)c3ccc(=O)n(C)c3)c3ccccc3C)cc2)CC1` [Example 508, (R,E)-5-(3-(4-(1-Acetylpiperidin-4-yl)phenyl)-1-(hydroxyimino)-3-o-tolylpropyl)-1-methylpyridin-2(1H)-one]: 405 nM. Still for that read-out and setting: for `Cc1ccccc1[C@H](C/C(=N\O)c1ccc(=O)n(C)c1)c1ccc(C2CCN(S(C)(=O)=O)CC2)cc1` [Example 509, (R,E)-5-(1-(Hydroxyimino)-3-(4-(1-(methylsulfonyl)piperidin-4-yl)phenyl)-3-o-tolylpropyl)-1-methylpyridin-2(1H)-one] the value was 99 nM. `Cc1ccccc1[C@H](C/C(=N\O)c1ccc(=O)n(C)c1)c1ccc(C2CCN(S(N)(=O)=O)CC2)cc1` [Example 510, (R,E)-4-(4-(3-(Hydroxyimino)-3-(1-methyl-6-oxo-1,6-dihydropyridin-3-yl)-1-o-tolylpropyl)phenyl)piperidine-1-sulfonamide] came in with an EC50 on human GPBAR1 receptor of 48 nM. This EC50 lies about 2.1-fold lower than the previous one. On to `CC(=O)N1CCC(c2ccc([C@@H](C/C(=N\O)c3ccnc(C)c3)c3ccc(Cl)cc3C)cc2)CC1` [Example 511, (R,E)-1-(4-(4-(1-(4-Chloro-2-methylphenyl)-3-(hydroxyimino)-3-(2-methylpyridin-4-yl)propyl)phenyl)piperidin-1-yl)ethanone], for which, at human GPBAR1 receptor, the EC50 stood at 36 nM. With PYY3-36, in assay [1], the reduced food intake is 33%.
